Measurements reported in patent US9365540B2, “Benzimidazole derivatives as MCH receptor antagonists” (Takeda Pharmaceutical Company Limited, priority 2012, dated 2016).
Counter-ions that a name gives are not always drawn.

What was measured:
[1] = test system: male diet-induced obese F344/Jcl rats; experiment: Anorectic effect in male diet-induced obese F344/Jcl rats; format: in vivo, rat; details: 5 mg/mL suspension at 2 mL/kg, two administrations, food intake for 2 days vs control group; for inhibition in vivo at 5000 µg/mL, 10 mg/kg: Rattus norvegicus, po, 48 h, read-out: Food intake suppression rate (%)
Description: Evaluation of Anorectic Effect Using Male Diet-Induced Obese F344/Jcl Rats
Male diet-induced obese F344/Jcl rats (44-50 weeks old) fed with a high-fat diet (D12451: Research Diets) from 5 weeks old were used. From before the start of experiment, the rats were singly housed, given a powder high-fat diet (D12451M: Research Diets), and habituated to oral administration with tap water. The food intake from the evening of the day before the start of experiment to the next morning was measured, and the rats were grouped based on both the food intake and the body weight of the previous day. In the evening of the day of the start of experiment and the next day, 0.5% methylcellulose solution was orally administered to the control group, and 0.5% methylcellulose suspension (5 mg/mL) of the test compound was orally administered to the compound administration group at 2 mL/kg (6 per group for both control group and compound administration group). The food intake for 2 days from the initial administration was measured. The food intake inhibition rate of each compound administration group to the control group was calculated.

[2] = test system: HepG2 cells; experiment: PLsis (phospholipidosis) inducing potential, NBD-PE uptake; format: cell-based; details: 24 hr exposure, relative value to 10 μM Amiodarone, maximum value per unit concentration
Description: Evaluation of PLsis Inducing Potential
DMEM medium, L-glutamine, penicillin-streptomycin, pyruvic acid, and N-(7-nitrobenz-2-oxa-1,3-diazol-4-yl)-1,2-hexadecanoyl-sn-glycero-3-phosphoethanolamine triethylammonium salt (NBD-PE) were purchased from Invitrogen Corporation. As bovine serum albumin (BSA), a product of Thermo Trace Ltd. (Melbourne, Australia) was used, and as Amiodarone, a product of ICN (Costa Mesa, Calif.) was used. A test compound was used in the form of a 10 mM DMSO solution.
FBS was added at a final concentration of 5 vol % to DMEM medium supplemented with L-glutamine, pyruvic acid and penicillin-streptomycin and subjected to the experiment. Culture was performed using 5% carbon dioxide gas-95% air as a gas phase in a CO2 incubator at 37° C. HepG2 cells were suspended in a culture medium at 50×10^4 cells/mL, plated in a 96 well plate at 50 μL/well and precultured for 24 hr. After preculture, the culture medium was removed, a culture medium containing 60 μM NBD-PE was added at 50 μL/well, and a culture medium containing 0.6 μM or 20 μM test compounds were each added at 50 μL/well to HepG2 cells, and the cells were cultured for 24 hr. As a positive control, Amiodarone was used at a final concentration of 10 μM.
After exposure to the test compound for 24 hr, the fluorescence intensity (Ex. 485 nm, Em. 538 nm) of NBD-PE uptaken by the cells was measured by a fluorometer. The measurement value with addition of 0 μM test compound solution was subtracted as a blank, a relative value to the measurement 5 value with addition of 10 μM Amiodarone was calculated, and the maximum value per unit concentration of the test compound was obtained as a phospholipidosis (PLsis) inducing potential.

[3] = target: T1, human MCH receptor 1 (MCHR1) (Homo sapiens, UniProt Q99705); experiment: human MCH receptor 1 (MCHR1) competitive binding assay with [125I]-MCH(4-19); details: test compound 0.1 μM, human MCHR1-expressing CHO cell membrane fraction, read-out: Binding inhibition rate % (0.1 μM)
T1 construct: expressed in transfected cells; host or cells: CHO cell clone 57 (membrane fraction)
In short: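 Membranes from CHO cells expressing human MCHR1 incubated with [125I]-MCH(4-19) and test compound in 20 mM Tris-HCl pH 7.5/5 mM EDTA with protease inhibitors, 1 hr at room temperature. Bound radioactivity collected on PEI-treated GF/C filters; % inhibition at 0.1 μM compound, nonspecific binding set with cold MCH(1-19).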

[4] = target: T2, human MCHR1 (Homo sapiens, UniProt Q99705); experiment: MCH receptor 1 antagonistic activity, Ca2+ mobilization assay; format: cell-based; details: CHO, test compound 0.1 μM; human MCHR1-expressing CHO cells (clone #4); ligand MCH(4-19) 2 nM; read-out: Inhibitory rate % (0.1 μM)
T2 construct: expressed in transfected cells; host or cells: CHO dhfr- cells, clone #4
In short: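 CHO dhfr− cells stably expressing human MCHR1 (clone #4) were used in a fluorometric Ca2+ mobilization assay. Test compounds were run at 0.1 μM, with antagonism expressed as percent inhibition.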

T1 sequence (Q99705 whole entry): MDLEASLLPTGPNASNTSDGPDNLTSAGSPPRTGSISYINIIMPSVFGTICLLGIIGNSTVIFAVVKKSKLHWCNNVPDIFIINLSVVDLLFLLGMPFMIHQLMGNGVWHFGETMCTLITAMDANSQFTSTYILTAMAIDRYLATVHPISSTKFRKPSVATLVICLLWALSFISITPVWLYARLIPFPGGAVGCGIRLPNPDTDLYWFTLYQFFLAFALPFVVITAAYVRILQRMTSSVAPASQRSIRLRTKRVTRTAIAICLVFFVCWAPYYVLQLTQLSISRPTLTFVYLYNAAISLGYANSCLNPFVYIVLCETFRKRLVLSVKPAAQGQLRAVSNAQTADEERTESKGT
T2 sequence (Q99705 whole entry): as above

Row | Structure (SMILES) | inhibition at 0.1 µM [3] | inhibition at 0.1 µM [4] | inhibition in vivo at 5000 µg/mL, 10 mg/kg [1] | PLsis inducing potential [2] | Food intake suppression rate (%) ([1]; oral, hydrochloride)
1 | Cn1c(C2CC2)nc2ccc(-n3ccc(OCc4ccccc4)cc3=O)cc21 [Example 9, 4-(Benzyloxy)-1-(2-cyclopropyl-1-methyl-1H-benzimidazol-6-yl)pyridin-2(1H)-one] | 72% | 100% | 14.8% | – | –
2 | Cn1c(CC2CC2)nc2ccc(-n3ccc(OCc4ccc(F)cc4)cc3=O)cc21 [Example 15, 1-(2-(Cyclopropylmethyl)-1-methyl-1H-benzimidazol-6-yl)-4-((4-fluorobenzyl)oxy)pyridin-2(1H)-one] | 53% | 90% | 45.4% | – | –
3 | CCc1nc2ccc(-n3ccc(OCc4ccc(Cl)s4)cc3=O)cc2n1C [Example 49, 4-[(5-Chlorothiophen-2-yl)methoxy]-1-(2-ethyl-1-methyl-1H-benzimidazol-6-yl)pyridin-2(1H)-one] | – | – | 29.3% | – | –
4 | CCc1nc2ccc(-n3ccc(OCc4csc(Cl)c4)cc3=O)cc2n1C [Example 51, 4-[(5-Chlorothiophen-3-yl)methoxy]-1-(2-ethyl-1-methyl-1H-benzimidazol-6-yl)pyridin-2(1H)-one] | – | – | 50% | – | –
5 | Cn1c(C2CC2)nc2ccc(-n3ccc(OCc4ccc(Cl)c(F)c4)cc3=O)cc21 [Example 131, 4-((4-Chloro-3-fluorobenzyl)oxy)-1-(2-cyclopropyl-1-methyl-1H-benzimidazol-6-yl)pyridin-2(1H)-one] | 78% | – | 44.3% | – | –
6 | Cn1c(C2CC2)nc2ccc(-n3ccc(OCc4csc(Cl)c4)cc3=O)cc21 [Example 143, 4-((5-Chloro-3-thienyl)methoxy)-1-(2-cyclopropyl-1-methyl-1H-benzimidazol-6-yl)pyridin-2(1H)-one] | 91% | – | 39.4% | 1.6 | –
7 | Cc1c(C2CC2)nc2ccc(-n3ccc(OCc4ccc(C(F)(F)F)s4)cc3=O)cn12 [Example 160, 1-(2-Cyclopropyl-3-methylimidazo[1,2-a]pyridin-6-yl)-4-((5-(trifluoromethyl)thiophen-2-yl)methoxy)pyridin-2(1H)-one hydrochloride] | – | – | – | – | 22.7%
8 | Cn1c(C2CC2)nc2ccc(-n3ccc(OCc4ccc(C(F)(F)F)s4)cc3=O)cc21 [Example 242, 1-(2-Cyclopropyl-1-methyl-1H-benzimidazol-6-yl)-4-((5-(trifluoromethyl)-2-thienyl)methoxy)pyridin-2(1H)-one hydrochloride] | – | – | 17.4% | – | –
9 | Cn1c(C2CC2)nc2ccc(-n3ccc(OCc4csc(C(F)(F)F)c4)cc3=O)cc21 [Example 252, 1-(2-Cyclopropyl-1-methyl-1H-benzimidazol-6-yl)-4-((5-(trifluoromethyl)-3-thienyl)methoxy)pyridin-2(1H)-one] | 66% | 85% | 30.8% | – | –
10 | Cn1c(C2CC2)nc2ccc(-n3ccc(OCc4csc(C(F)(F)F)n4)cc3=O)cc21 [Example 266, 1-(2-Cyclopropyl-1-methyl-1H-benzimidazol-6-yl)-4-((2-(trifluoromethyl)-1,3-thiazol-4-yl)methoxy)pyridin-2(1H)-one] | 50% | 73% | 20% | – | –
11 | CCc1nc2ccc(-n3ccc(OCc4cc(C(F)(F)F)cs4)cc3=O)cc2n1C [Example 276, 1-(2-Ethyl-1-methyl-1H-benzimidazol-6-yl)-4-((4-(trifluoromethyl)-2-thienyl)methoxy)pyridin-2(1H)-one] | 71% | 97% | 57.9% | – | –
12 | Cc1nc2ccc(-n3ccc(OCc4csc(C(F)(F)F)c4)cc3=O)cc2n1C [Example 290, 1-(1,2-Dimethyl-1H-benzimidazol-6-yl)-4-((5-(trifluoromethyl)thiophen-3-yl)methoxy)pyridin-2(1H)-one] | 77% | 90% | 43.5% | – | –
13 | Cc1c(C2CC2)nc2ccc(-n3ccc(OCc4ccc(F)cn4)cc3=O)cn12 [Example 291, 1-(2-Cyclopropyl-3-methylimidazo[1,2-a]pyridin-6-yl)-4-((5-fluoropyridin-2-yl)methoxy)pyridin-2(1H)-one hydrochloride] | 47% | 98% | – | – | –

Further lines, with some results ahead:

Row | inhibition at 0.1 µM [3] | inhibition at 0.1 µM [4] | Structure (SMILES) | inhibition in vivo at 5000 µg/mL, 10 mg/kg [1] | PLsis inducing potential [2] | Food intake suppression rate (%) ([1]; oral, hydrochloride)
14 | 91% | 98% | Cc1c(C2CC2)nc2ccc(-n3ccc(OCc4ccc(F)cc4)cc3=O)cn12 [Example 1, 1-(2-Cyclopropyl-3-methylimidazo[1,2-a]pyridin-6-yl)-4-((4-fluorobenzyl)oxy)pyridin-2(1H)-one] | 19.5% | 2.5 | –
15 | 88% | 99% | Cc1c(C2CC2)nc2ccc(-n3ccc(OCc4ccc(Cl)cc4)cc3=O)cn12 [Example 3, 4-((4-Chlorobenzyl)oxy)-1-(2-cyclopropyl-3-methylimidazo[1,2-a]pyridin-6-yl)pyridin-2(1H)-one] | 29.6% | 2.4 | –
16 | 89% | 99% | Cn1c(C2CC2)nc2ccc(-n3ccc(OCc4ccc(Cl)cc4)cc3=O)cc21 [Example 10, 4-((4-Chlorobenzyl)oxy)-1-(2-cyclopropyl-1-methyl-1H-benzimidazol-6-yl)pyridin-2(1H)-one] | 58.1% | – | –
17 | 82% | – | Cn1c(C2CC2)nc2ccc(-n3ccc(OCc4ccc(F)c(F)c4)cc3=O)cc21 [Example 115, 1-(2-Cyclopropyl-1-methyl-1H-benzimidazol-6-yl)-4-((3,4-difluorobenzyl)oxy)pyridin-2(1H)-one] | 32% | 1.8 | –
18 | 48% | 90% | Cc1c(C2CC2)nc2ccc(-n3ccc(OCc4ccc(F)s4)cc3=O)cn12 [Example 156, 1-(2-Cyclopropyl-3-methylimidazo[1,2-a]pyridin-6-yl)-4-((5-fluorothiophen-2-yl)methoxy)pyridin-2(1H)-one] | – | 2.0 | –
19 | 83% | 105% | Cc1c(C2CC2)nc2ccc(-n3ccc(OCc4ccc(C(F)(F)F)s4)cc3=O)cn12 [Example 158, 1-(2-Cyclopropyl-3-methylimidazo[1,2-a]pyridin-6-yl)-4-((5-(trifluoromethyl)thiophen-2-yl)methoxy)pyridin-2(1H)-one] | 20.3% | – | –
20 | 89% | 106% | CCc1nc2ccc(-n3ccc(OCc4csc(Cl)c4)cc3=O)cc2n1C [Example 226, 4-((5-Chloro-3-thienyl)methoxy)-1-(2-ethyl-1-methyl-1H-benzimidazol-6-yl)pyridin-2(1H)-one] | – | 2.1 | –
21 | 75% | 89% | Cn1c(C2CC2)nc2ccc(-n3ccc(OCc4cc(C(F)(F)F)cs4)cc3=O)cc21 [Example 275, 1-(2-Cyclopropyl-1-methyl-1H-benzimidazol-6-yl)-4-((4-(trifluoromethyl)-2-thienyl)methoxy)pyridin-2(1H)-one] | 50.1% | – | –
